Measurements published in patent US11345702B1 (Myoforte Therapeutics, Inc., priority 2020, dated 2022).
pIC50: −log10 of the molar value. Converted amounts (≈) assume the structure as drawn.

Key:
[1] = Liver microsome stability assay (RLM); format: in vitro ADME; conditions: rat liver microsomes
Experimental: (§1) A microsomal mixture (microsomes and Kphos buffer) was prepared at a concentration of 1.428 mg/mL in 2 mL tubes. To this microsomal mixture 1.6 μL (1 mM) of test compound and positive control were spiked; from this mixture, 70 μL was transferred to 96 well plate and pre-incubated at 37° C. for 5 min. After pre-incubation, the zero minute time point reaction was stopped using 100 μL of ice-cold acetonitrile containing internal standard and […] (3.33 mM in Kphos buffer) was added. The 45 minute time point reaction was initiated by addition of 30 μL of NADPH (3.33 mM in Kphos buffer) and incubated at 37° C. for 15 and 45 min. Reactions without NADPH and buffer controls (minus NADPH) at 0, 15, and 45 minutes were also incubated to rule out non-NADPH metabolism or chemical instability in the incubation buffer. Incubation reactions were stopped with 100 μL of ice-cold acetonitrile containing internal standard. The plates were centrifuged at 4000 RPM for 15 min and 100 μL aliquots were submitted for analysis by LC-MS/MS. (Verapamil in human liver microsomes (HLM) and rat liver microsomes (RLM) was used as positive controls. Imipramine in mouse liver microsomes (MLM) was used as a positive control.) Samples were monitored for parent compound disappearance in MRM mode (multiple reaction monitoring) using LC-MS/MS. The peak area ratios of analyte versus internal standard were used to calculate the % remaining at the end of 45 minutes in the presence of NADPH.

15-PGDH/HPGD = 15-PGDH/HPGD (Homo sapiens (Human), UniProt P15428); test: hPGDH inhibitor screening biochemical assay; conditions: read-out: hPGDH: Average IC50
Chain of 15-PGDH/HPGD (P15428 whole entry): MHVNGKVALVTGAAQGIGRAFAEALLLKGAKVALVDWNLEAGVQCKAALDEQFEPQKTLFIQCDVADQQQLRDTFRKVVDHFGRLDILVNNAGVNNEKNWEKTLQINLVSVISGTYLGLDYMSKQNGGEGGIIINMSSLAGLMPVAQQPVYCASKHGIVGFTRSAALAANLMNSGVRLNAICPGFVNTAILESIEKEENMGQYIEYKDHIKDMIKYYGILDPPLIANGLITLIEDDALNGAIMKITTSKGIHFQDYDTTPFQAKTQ
How it was run: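 Recombinant human 15-PGDH (10 nM) pre-incubated with compounds 10 min at 37 °C, then 15 μM PGE2 and 0.25 mM NAD+ added for 10 min at room temperature in 50 mM Tris-HCl pH 7.5, 0.01% Tween 20. NADH fluorescence read at ex/em 340/485 nm. IC50 from 10-point curves, four-parameter fit versus 1% DMSO.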

[2] = Liver microsome stability assay (MLM); format: in vitro ADME; conditions: mouse liver microsomes
How it was run: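 Mouse, rat or human liver microsomes (mixture at 1.428 mg/mL) in potassium phosphate buffer, 37 °C, incubated with compound after NADPH addition; minus-NADPH controls included. Parent loss by LC-MS/MS (MRM) with internal standard; value is % remaining at 45 min with NADPH.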

[3] = Liver microsome stability assay (HLM); format: in vitro ADME; conditions: human liver microsomes
Experimental: as §1

Solubility at pH 7.4 = format: physicochemical; conditions: for solubility: pH 7.4, aqueous buffer, read-out: Solubility: Solubility at pH 7.4
A549 cells = test: A549 cell-based assay (PGE2 level)
Experimental: 30,000 A549 cells per well were seeded into a tissue culture treated flat bottom 96 well plate, and incubated for 24 hours in a 37° C., […] incubator. After 24 hours of incubation, complete media were replaced with 100 μL of low serum (F12K+1% FBS) media and the plate was incubated for 24 hours in a 37° C., 5% CO2 incubator. After 24 hours of incubation, low serum media was replaced with 80 μL of complete medium (F12K+10% FBS) and 10 μL (10× concentration) of compounds were added and incubated at 37° C. for 30 minutes followed by stimulation of 10 μL (10× concentration) of IL-1b (Final concentration 0.25 ng/mL) overnight in a 37° C., […] incubator. After 24 hours of incubation, the supernatant was collected and the PGE2 level was detected by using Cisbio HTRF kit (Catalog #62P2APEH). Briefly, 5 μL of sample (100-Fold diluted) was dispensed into each sample well. 5 μL of each Prostaglandin E2 standard (Std 0-Std 7) was dispensed into each standard well. 2.5 μL of Prostaglandin E2-d2 working solution was added to all wells except negative controls and 2.5 μL of Anti-Prostaglandin E2-Eu3+ Cryptate working solution was added to all wells. […] After 5 hours of incubation, the plate sealer was removed and the plate was read on a HTRF® compatible reader. Delta F and PGE2 level were calculated as per kit instructions. % Fold change was calculated with respect to DMSO control wells.

RLM + NADPH (% remaining at 45 min) [1] [%] | pIC50 (15-PGDH/HPGD) | MLM + NADPH (% remaining at 45 min) [2] [%] | HLM + NADPH (% remaining at 45 min) [3] [%] | Solubility: Solubility at pH 7.4 (μM) (Solubility at pH 7.4) | solubility (Solubility at pH 7.4) [µM] | SMILES | activity in the A549 cell-based assay (FIG. 1) (A549 cells)
23 | > 7.00 | 30 | 87 | 150 | – | O=C(c1cnc2c(c1)ncn2-c1cccc(Cl)c1)N1CCCCC1 [MF-PGDH-020] | –
– | > 7.00 | 116 | – | – | > 100 | O=C(c1cnc2c(ccn2-c2cncc(-c3nnn[nH]3)c2)c1)N1CCC(F)(F)CC1 [MF-DH-453, (1-(5-(1H-tetrazol-5-yl)pyridin-3-yl)-1H-pyrrolo[2,3-b]pyridin-5-yl)(4,4-difluoropiperidin-1-yl)methanone] | –
89 | > 7.00 | – | 96 | 140 | – | COc1ccc(-n2cnc3cc(C(=O)N4CCC(F)CC4)cnc32)cc1 [MF-PGDH-078] | –
87 | > 7.00 | – | 100 | 140 | – | COc1ccc(-n2cnc3cc(C(=O)N4CCC(F)(F)CC4)cnc32)cc1 [MF-PGDH-079] | –
– | > 7.00 | – | – | – | – | N#Cc1ccc(-n2ccc3cc(C(=O)N4CCC(F)CC4)cnc32)cc1 [MF-DH-342] | displayed activity
84 | > 7.00 | – | 97 | 160 | – | COc1ccc(-n2cnc3cc(C(=O)N4CCCCC4)cnc32)cc1 [MF-PGDH-077] | –
– | > 7.00 | 101 | – | – | < 5 | CC(C)NC(=O)c1ccc(-n2ccc3cc(C(=O)N4CCC(F)(F)CC4)cnc32)cc1 [MF-DH-404] | –

Continued, molecule first:

SMILES | RLM + NADPH (% remaining at 45 min) [1] [%] | pIC50 (15-PGDH/HPGD) | MLM + NADPH (% remaining at 45 min) [2] [%] | HLM + NADPH (% remaining at 45 min) [3] [%] | Solubility: Solubility at pH 7.4 (μM) (Solubility at pH 7.4) | solubility (Solubility at pH 7.4) [µM] | activity in the A549 cell-based assay (FIG. 1) (A549 cells)
O=C(c1cnc2c(c1)c(Cl)cn2-c1cnccn1)N1CCC(F)CC1 [MF-DH-124] | 34 | > 7.00 | – | 48 | – | – | –
COc1ccc(Cn2ncc3cc(-n4ccc5cc(C(=O)N6CCCCC6)cnc54)ccc32)cc1 [MF-DH-337] | 1 | > 7.00 | – | – | – | < 5 | –
Cc1cncc(-n2cc(Cl)c3cc(C(=O)N4CCC(F)CC4)cnc32)n1 [MF-DH-166, (3-chloro-1-(6-methylpyrazin-2-yl)-1H-pyrrolo[2,3-b]pyridin-5-yl)(4-fluoropiperidin-1-yl)methanone] | 33 | > 7.00 | – | 47 | – | – | –
Cc1ncc(-n2cc(Cl)c3cc(C(=O)N4CCC(F)CC4)cnc32)cn1 [MF-DH-169, (3-chloro-1-(2-methylpyrimidin-5-yl)-1H-pyrrolo[2,3-b]pyridin-5-yl)(4-fluoropiperidin-1-yl)methanone] | 69 | > 7.00 | – | 71 | – | – | –
COc1ccc(-n2c(CC#N)nc3cc(C(=O)N4CCC(F)CC4)cnc32)cc1 [MF-DH-130] | 74 | 6.00 to 7.00 | – | 68 | – | – | –
O=C(c1ccc2c(cnn2-c2cncc(Cl)c2)c1)N1CCCCC1 [MF-DH-292] | 27 | > 7.00 | – | – | – | 69 (≈ 23.5 µg/mL) | –
O=C(c1cnc2c(ccn2-c2ccc3c(c2)OCO3)c1)N1CCC(F)CC1 [MF-DH-175] | 45 | > 7.00 | – | 117 | – | – | –
